pIC50: −log10 of the molar value. Calls of active or inactive are those of the source.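 How the source made its calls: active means maximal percent inhibition of the deubiquitinase OTUD3 of at least 30% across the tested doses; inactive means the rest.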
Target: OTU domain-containing protein 3 (Homo sapiens) (UniProt Q5T2D3)
Test: Validation of screening hits, potency titration, in vitro enzymatic, OTU domain-containing protein 3 DUB inhibitors (AID 1645868)
Conditions: purified OTUD3, ubiquitin-rhodamine cleavage fluorescence, 2 h

Chain of OTU domain-containing protein 3 (Homo sapiens) (Q5T2D3 whole entry, looked up, the tested form may be a part): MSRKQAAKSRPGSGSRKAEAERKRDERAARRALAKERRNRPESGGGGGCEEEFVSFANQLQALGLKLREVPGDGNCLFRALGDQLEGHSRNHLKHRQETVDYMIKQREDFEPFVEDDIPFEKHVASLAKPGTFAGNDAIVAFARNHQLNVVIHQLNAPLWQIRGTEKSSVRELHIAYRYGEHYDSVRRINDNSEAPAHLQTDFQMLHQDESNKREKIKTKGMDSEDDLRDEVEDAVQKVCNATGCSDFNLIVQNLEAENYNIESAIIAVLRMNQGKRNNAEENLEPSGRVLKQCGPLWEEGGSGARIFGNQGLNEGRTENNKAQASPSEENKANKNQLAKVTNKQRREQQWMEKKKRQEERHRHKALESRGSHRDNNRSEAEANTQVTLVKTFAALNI

SMILES	pIC50	IC50
Cc1nc(N2CCCC2)ncc1-c1cc(=O)[nH]c(N2CCc3ccccc3C2)n1	4.53	–
CSc1nc2ncc3c(=O)n(CCc4ccccc4)ccc3n2n1	–	> 50 µM (inactive)
COc1cc(O)c2c(c1)C1=CC(=O)C(O)=C[C@]1(C)OC2=O	4.52	–
COc1cccc2c1C(=O)c1ccc3c(c1C2=O)C(=O)CC(C)(O)C3 (centres undefined)	–	> 50 µM (inactive)
CC(=O)N1CCOc2cc(S(=O)(=O)N3CCCC3c3cc(C)no3)ccc21 (centres undefined)	–	> 50 µM (inactive)
COc1ccc(CCNC(=O)c2noc3c2CCc2sccc2-3)cc1OC	–	> 50 µM (inactive)
CCOc1ccccc1-c1nc(-c2nnn(Cc3ccccc3)c2C)no1	–	> 50 µM (inactive)
COc1ccc(COC(=O)C2=C(C)NC(=O)CC2c2cccc([N+](=O)[O-])c2)cc1 (centres undefined)	–	> 50 µM (inactive)
O=[N+]([O-])c1ccccc1C(c1c[nH]c2ccccc12)c1c[nH]c2ccccc12	4.31	–
Cc1ccc(NC(=O)c2cc(=O)n(C)c3c2c(=O)n(C)c(=O)n3C)c(C)c1	–	> 50 µM (inactive)
O=C(c1ccco1)N1CCCC2(C1)Nc1cccnc1NC2=NC1CCCC1 (centres undefined)	–	> 50 µM (inactive)
O=C(COC(=O)CCc1ccc(S(=O)(=O)N2CCOCC2)cc1)Nc1ccc2c(c1)OCCO2	–	> 50 µM (inactive)
O=C(Nc1cc(F)c2nc(N3CCOCC3)ccc2c1)C1CC1	–	> 50 µM (inactive)
C=C1CCC2[C@](C)(CCC[C@]2(C)C(=O)OC)[C@H]1CCc1ccoc1/C=C/C(=O)O (some centres undefined)	–	> 50 µM (inactive)
CC(C)OC(=O)c1cc2c(ccn2-c2ccc(F)cc2)n1CC(=O)NC1CCCCC1	–	> 50 µM (inactive)
Cc1nc(SCC(=O)Nc2cc(Cl)ccc2C)c2oc3ccccc3c2n1	–	> 50 µM (inactive)
CC1CCc2c(sc3nc(CC#N)[nH]c(=O)c23)C1 (centres undefined)	–	> 50 µM (inactive)
COc1ccccc1NC(=O)CNC(=O)c1nn(-c2ccc(OC)c(OC)c2)c(=O)c2ccccc12	4.41	–
CCOc1ccc(CCNC(=O)CCC(=O)Nc2ccc3nc(N4CCN(C)CC4)cc(C)c3c2)cc1OCC	–	> 50 µM (inactive)
Cc1cc(C)n(-c2cccc(C(=O)Nc3ccc4c(c3)CCN4S(C)(=O)=O)c2)n1	–	> 50 µM (inactive)
CC1(C)C[C@@H](O)[C@]2(C)CC[C@]3(C)C(=CCC4[C@@]5(C)CC[C@H](O)[C@](C)(CO)[C@@H]5CC[C@]43C)[C@@H]2C1 (some centres undefined)	–	> 50 µM (inactive)
O=C(c1cscn1)N1CCC2(CC1)CC1(CO2)Nc2ccccc2-n2cccc21 (centres undefined)	–	> 50 µM (inactive)

SMILES	pIC50	IC50
COc1ccc(NC(=O)CN2CCN(c3ccc(C(C)=O)cc3)CC2)cc1S(=O)(=O)N1CCCCC1	–	> 50 µM (inactive)
CC1CC(=O)Nc2ccccc2N1S(=O)(=O)c1ccc(C#N)cc1 (centres undefined)	–	> 50 µM (inactive)
COc1ccc(CCNC(=O)CCCCn2c(=O)c3ccccc3n(Cc3cccc(Cl)c3)c2=O)cc1OC	4.52	–
O=C(O)c1ccc(C2Cc3c([nH]c(=O)[nH]c3=O)O2)cc1 (centres undefined)	4.58	–
O=C(CCc1nnc2n(Cc3ccccc3Cl)c(=O)c3ccccc3n12)NCc1ccccn1	–	> 50 µM (inactive)
Cc1sc2nc(CN3CCCC3)nc(NCCc3ccc(Cl)cc3)c2c1C	–	> 50 µM (inactive)
C/C=C1/C2=CCCN3C(=O)O[C@H]([C@H]1O)[C@H]23	–	> 50 µM (inactive)
O=C(c1ccco1)N1CCC2(CC1)CC1(CO2)Nc2ccccc2-n2cccc21 (centres undefined)	–	> 50 µM (inactive)
Cc1ccc(-c2nnc(-n3ncc(C#N)c3N)c3ccccc23)cc1C	–	> 50 µM (inactive)
O=S1(=O)CCN(Cc2ccccc2)c2c(F)nc(N3CCCCC3)c(F)c21	–	> 50 µM (inactive)
CCOc1ccc(NC(=O)COc2cccc3c2CCN(CC)C3=O)cc1	–	> 50 µM (inactive)
COc1cc(C#N)c(NC(=NCc2ccc(F)cc2)SC)cc1OC	4.31	–
COc1ccc(Cl)cc1N1C(=O)[C@H]2[C@@H](C1=O)[C@]1(C(=O)Nc3c(C)cc(C)cc31)N1CCC[C@@H]21	–	> 50 µM (inactive)
COc1ccc(C2CC(=O)Nc3n[nH]c(-c4ccccc4)c32)cc1OC (centres undefined)	–	> 50 µM (inactive)
CC(=O)NCc1nc(-c2ccc3c(c2)nc(C)c(=O)n3C2CCCC2)no1	–	> 50 µM (inactive)
COc1cc2c(cc1OC)-c1cc(Nc3ccc(Br)cc3)nc(=O)n1CC2	5.08	–
CC(C)CC(=O)Nc1cc(F)c2nc(N3CCOCC3)ccc2c1	–	> 50 µM (inactive)
COc1ccccc1N1CCN(C(=O)c2ccc3c(c2)N(Cc2cc(C)ccc2C)C(=O)c2ccccc2S3=O)CC1 (centres undefined)	–	> 50 µM (inactive)
Cc1noc(-c2cc(=O)n(CC(=O)NCc3ccccc3)c3ccccc23)n1	–	> 50 µM (inactive)
Cc1cc2nc(Oc3cccc(Cl)c3)c3ccccc3n2n1	–	> 50 µM (inactive)
CCS(=O)(=O)N1CCc2cc(C(=O)Nc3ccc4c(c3)OCCO4)ccc21	–	> 50 µM (inactive)
CC1OC1C(=O)[C@]1(O)[C@H](C)[C@@H](O)[C@@]23O[C@@]2([C@H](O)c2c(O)cccc2C3=O)[C@H]1O (some centres undefined)	–	> 50 µM (inactive)

SMILES	pIC50	IC50
Cc1ccccc1C(=O)c1ccc(C(=O)NC2CCCCCC2)[nH]1	4.68	–
NC(=O)CCC(=O)N[C@H]1C[C@H]2CN(Cc3ccccc3)c3ccccc3CN2C1	–	> 50 µM (inactive)
O=C(NCc1nc(-c2ccc3c(c2)[nH]c(=O)n3C2CCCC2)no1)c1ccccc1	–	> 50 µM (inactive)
COc1ccc2c(c1)c(N1CCCC1=O)c(C(=O)NCc1cccc(OC)c1OC)n2C	–	> 50 µM (inactive)
COc1ccccc1-c1nc2c3c(C)c(C)n(Cc4cccnc4)c3ncn2n1	–	> 50 µM (inactive)
O=C(NCc1ccc(Cl)cc1)c1ccc(N2CCCS2(=O)=O)cc1	–	> 50 µM (inactive)
Cc1ccc(S(=O)(=O)N(C)C)cc1NC(=O)Cc1ccc(Cl)c(Cl)c1	–	> 50 µM (inactive)
COc1cccc(N2CCN(C(=O)Nc3ccc4c(c3)NC(=O)CO4)CC2)c1	4.65	–
CCOC(=O)c1ccc(NC(=O)c2cnc(N3CCOCC3)nc2)cc1	–	> 50 µM (inactive)
Cc1ccc(C(=O)Nc2cc3c4c(c2)CC(=O)N4CCC3)cc1	–	> 50 µM (inactive)
CC(=O)N1CCCC(c2nc(C)cc(-c3cc(F)ccc3C(=O)O)n2)C1 (centres undefined)	–	> 50 µM (inactive)
CCCCNC(=O)C1Sc2nnc(-c3ccccc3)n2NC1c1ccccc1 (centres undefined)	4.75	–
COC(=O)c1ccc(Cn2cnc3ccc(Br)cc3c2=O)o1	–	> 50 µM (inactive)
CCOc1ccc2[nH]c(=O)c(CN(C(=O)c3cccs3)C3CCCC3)cc2c1	4.53	–
CSc1cccc(NC(=O)CNC(=O)c2cc3ccccc3o2)c1	–	> 50 µM (inactive)
Cc1sc(NC(=O)CNc2ccccc2)nc1-c1ccc2c(c1)CCN2C(=O)C(C)C	–	> 50 µM (inactive)
NC(=O)c1nc(-c2cccnc2)nc2c1[nH]c(=O)n2-c1ccc2c(c1)OCO2	–	> 50 µM (inactive)
Cc1cc(C)nc(SCCn2c(N3CCC(Cc4ccccc4)CC3)nc3c2c(=O)n(C)c(=O)n3C)n1	–	> 50 µM (inactive)
CC(=O)c1cccc(NC(=O)c2ccc3[nH]c4c(c3c2)CC(C)CC4)c1 (centres undefined)	–	> 50 µM (inactive)
CCn1c(SCc2cccc(C)c2)nnc1-c1cnccn1	–	> 50 µM (inactive)

Now from value to compound:

pIC50	IC50	SMILES
4.54	–	Cc1ccc(C(=O)Nc2nc3n(n2)C(c2ccccc2)CC(=O)N3)cc1 (centres undefined)
–	> 50 µM (inactive)	O=C1COc2ccc(NC(=O)c3cnn(Cc4ccccc4)c3)cc2N1
–	> 50 µM (inactive)	O=C1c2ccccc2-n2c1nc1ccccc1c2=O
–	> 50 µM (inactive)	Cc1ccc(S(=O)(=O)NCC(=O)OC(C(=O)Nc2cc(C)ccc2C)c2ccccc2)cc1 (centres undefined)
4.76	–	Cc1cccc(NC(=O)Cn2c(=O)n(Cc3ccc(F)cc3)c(=O)c3sccc32)c1
–	> 50 µM (inactive)	c1csc(-c2nc(Nc3ccc4c(c3)CCC4)c3ccccc3n2)c1
–	> 50 µM (inactive)	Fc1ccc(-c2noc(-c3nnc(NCc4cccnc4)c4ccccc34)n2)cc1
4.40	–	COc1ccc(C)cc1NC(=O)C1CC(=O)Nc2nc3ccccc3n21 (centres undefined)
–	> 50 µM (inactive)	CCn1cc(-c2nc(-c3ccccn3)no2)c(=O)c2cc(F)ccc21
–	> 50 µM (inactive)	CCOc1ccccc1NC(=O)Cn1ccn2nc(-c3ccc(OC)cc3)cc2c1=O
–	> 50 µM (inactive)	c1ccc2c(c1)ccc1nnc(-c3ccc4c(c3)OCO4)n12
–	> 50 µM (inactive)	Cc1ccc(-c2ncc(C(=O)NCc3cccc(C)c3)c(-c3ccncc3)n2)cc1
5.47	–	Cc1ccc2[nH]c(=O)c(-c3nc4ccc(C)cn4c3NCc3ccc(F)cc3)cc2c1
–	> 50 µM (inactive)	Cc1sc(-c2cccnc2)nc1OC(=O)c1ccc(Cl)c(Cl)c1
–	> 50 µM (inactive)	O=C(Oc1ccc(-c2cnc3ccccc3n2)cc1)c1ccc(F)cc1
–	> 50 µM (inactive)	COc1ccc(C(C)NC(=O)c2cnc(-c3ccccc3)nc2-c2ccncc2)cc1 (centres undefined)
–	> 50 µM (inactive)	N#Cc1ccc(-c2ccc(OCC(=O)Nc3ccc4c(c3)OCO4)cc2)cc1
–	> 50 µM (inactive)	Cc1nc(-c2cccc(NC(=O)c3ccccc3Cl)c2)no1
–	> 50 µM (inactive)	CS(=O)(=O)n1nc(NCc2ccc(F)cc2)nc1NCc1ccc(F)cc1
4.38	–	CC(=O)c1sc(NC(=O)c2ccccc2-c2ccc(C(F)(F)F)cc2)nc1C
–	> 50 µM (inactive)	N#Cc1cccc(NC(=O)Cn2cccc(-c3nc(-c4ccccc4)no3)c2=O)c1
4.48	–	O=C(Nc1ccc2c(c1)OCCO2)c1cccc2nc3ccccc3nc12
–	> 50 µM (inactive)	COc1ccc(-n2ccc(=O)c(-c3nc(-c4ccccc4F)no3)n2)cc1OC
5.62	–	COc1ccc(OCCn2c(C3CC(=O)N(c4cccc(C)c4)C3)nc3ccccc32)cc1 (centres undefined)
–	> 50 µM (inactive)	COc1ccc(NC(=O)c2nnn(-c3cccc(C)c3)c2C)cc1
–	> 50 µM (inactive)	COc1ccc(-c2nc(SCC(=O)Nc3ccc(Cl)cc3F)n[nH]2)cc1
–	> 50 µM (inactive)	O=C(NC(Cc1ccccc1)c1nc2ccccc2[nH]1)c1ccccn1 (centres undefined)
4.49	–	CCOc1ccccc1C(=O)Oc1ccc2c(C)cc(=O)oc2c1
4.57	–	c1ccc(-c2nc(-c3nnn(-c4ccccc4)c3-c3ccncc3)no2)cc1
–	> 50 µM (inactive)	CC(=O)c1cccc(NC(=O)c2ccc(-c3csc(C)n3)cc2)c1
